{"source": "patent US20090269352A1", "about": "“ANTITUMOR AGENT COMPRISING SULFONAMIDE-CONTAINING HETEROCYCLIC COMPOUND COMBINED WITH AN ANGIOGENESIS INHIBITOR” (priority 2002, published 2009)", "key": {"[1]": {"system": "Human umbilical vein endothelial cells", "assay": "Proliferation of VEGF-induced endothelial cells, combination with E7820", "type": "cell-based", "conditions": "inhibition rate (fa) 0.5, 20 ng/ml VEGF; for Combination index (CI): formula of Chou et al.", "description": "(§1) On the next day, ½ serial dilutions of VEGF receptor kinase inhibitors (ZD6474, ZD4190, SU5416, SU6668) or VEGF antibody as VEGF inhibitors, ½ serial dilutions of VEGF antibody, ½ serial dilutions of E7820, and dilutions containing two of the above substances were prepared respectively, and each dilution was added in a volume of 100 μl/well to each well containing the cultured human umbilical vein endothelial cells, and the cells were further cultured.\n(§2) After 3 days, 5 ml cell counting kit solution (Wako Pure Chemical Industries, Ltd.) were diluted with PBS to give 40 ml dilution, and 50 μl of this dilution were added to each well, then incubated at 37° C. for 3 to 4 hours and measured for its absorbance at 415 nm by a plate reader (Corona Denki Co., Ltd.)."}, "[2]": {"system": "Colo320DM cells", "assay": "Mouse model with grown cancer, Colo320DM", "type": "in vivo, mice (KSN Slc, female)", "conditions": "Colo320DM tumor; oral, 2 weeks; relative tumor volume treated/control", "description": "(§3) 1×10^7 KP-1 or Colo320DM cells/0.1 ml PBS/mouse were inoculated subcutaneously to mice (KSN Slc, female). From 1 to 2 weeks after the transplantation, 0.5% aqueous methyl cellulose solution, E7820 (0.5% methyl cellulose suspension: 50, 100, 200 mg/kg: twice a day), or ZD6474 (0.5% methyl cellulose suspension: 50, 100 mg/kg: once a day), or both of E7820 (50, 100, 200 mg/kg: twice a day) and ZD6474 (50, 100 mg/kg: once a day), were orally administered for 2 weeks. The transplanted tumor volume was measured twice every week, and the relative tumor volume was calculated according to the following equation: Relative tumor volume=tumor volume on the day after last administration/tumor volume at first administration.\n(§4) The antitumor effect was expressed in T/C % (T/C %=relative tumor volume in the chemical administration group/relative tumor volume in the control group)."}, "[3]": {"system": "KP-1 cells", "assay": "Mouse model with grown cancer, KP-1", "type": "in vivo, mice (KSN Slc, female)", "conditions": "KP-1 tumor; oral, 2 weeks; relative tumor volume treated/control", "description": "as §3, §4"}, "[4]": {"system": "KP-1 or Colo320DM cells", "assay": "Mouse model with grown cancer (FIG. 1, tumor not given)", "type": "in vivo, mice (KSN Slc, female)", "conditions": "oral, 2 weeks", "description": "as §3, §4"}, "[5]": {"system": "Human umbilical vein endothelial cells (HUVEC)", "assay": "Tube formation of endothelial cell, VEGF inhibitor wells, combination with E7820", "protocol": "(§5) 400 μl of type I collagen gel (Nitta Gelatin) were added onto each well of a 24-well plate (FALCON) and gelled at 37° C. in a CO2 incubator for 40 min. A serum-free medium (human endothelial-SFM basal growth medium; GIBCO BRL) containing 20 ng/ml EGF (GIBCO BRL) was prepared, and 200 μl of this medium solution were added onto each well containing the type I collagen gel. Human umbilical vein endothelial cells (HUVEC) were suspended in a serum-free medium (human endothelial-SFM basal growth medium; GIBCO BRL) to prepare a cell suspension at a density of 5×10^5 cells/ml. 200 μl of this suspension were put into each well containing the type I collagen gel and serum-free medium, and cultured overnight.\n(§6) After incubation, […] of 3.3 mg/ml MTT (SIGMA) were added into each well and reacted at 37° C. in a CO2 incubator for 3 hours to stain the cells. Under a microscope (SZX12 manufactured by OLYMPUS), an image of a tube formed by HUVEC was incorporated (M-3204C manufactured by OLYMPUS). The tube length in the incorporated image was measured by image analysis software Mac SCOPE 2.56 (manufactured by MITANI) to quantify the tube formation of HUVEC."}, "[6]": {"system": "Human umbilical vein endothelial cells", "assay": "Proliferation of FGF-induced endothelial cells, combination with E7820", "type": "cell-based", "conditions": "inhibition rate (fa) 0.5, 20 ng/ml bFGF; for Combination index (CI): formula of Chou et al.", "description": "as §1, with “FGF” for “VEGF”, “(PD166866, PD173074)” for “(ZD6474, ZD4190, SU5416, SU6668)”, “inhibitors,” for “inhibitors, ½ serial dilutions of VEGF antibody,”\nas §2"}, "[7]": {"system": "Human umbilical vein endothelial cells (HUVEC)", "assay": "Tube formation of endothelial cell, FGF inhibitor wells, combination with E7820", "type": "cell-based", "conditions": "inhibition rate (fa) 0.5, 10 ng/ml EGF and 20 ng/ml bFGF", "protocol": "as §5, §6"}}}
{"smiles": "Cc1[nH]c(/C=C2\\C(=O)Nc3ccccc32)c(C)c1CCC(=O)O", "note": "[SU6668]", "values": [{"measurement": "Combination effect", "setting": "[1]", "value": "Synergistic"}, {"measurement": "Combination index (CI)", "setting": "[1]", "value": 0.5}]}
{"smiles": "Cc1cc(C)c(/C=C2\\C(=O)Nc3ccccc32)[nH]1", "note": "[SU5416]", "values": [{"measurement": "Combination effect", "setting": "[1]", "value": "Synergistic"}, {"measurement": "Combination index (CI)", "setting": "[1]", "value": 0.4}]}
{"smiles": "COc1cc2c(Nc3ccc(Br)cc3F)ncnc2cc1OCC1CCN(C)CC1", "note": "[ZD6474]", "values": [{"measurement": "T/C %", "setting": "[2]", "value": 56, "unit": "%"}, {"measurement": "T/C %", "setting": "[3]", "value": 47, "unit": "%"}, {"measurement": "Combination effect", "setting": "[1]", "value": "Synergistic"}, {"measurement": "Combination index (CI)", "setting": "[1]", "value": 0.4}, {"measurement": "Tumor growth / antitumor effect (FIG. 1)", "setting": "[4]", "value": "tumor growth was inhibited"}, {"measurement": "Combination effect", "setting": "[5]; inhibition rate (fa) 0.5, 10 ng/ml EGF and 20 ng/ml VEGF", "value": "Synergistic"}, {"measurement": "Combination index (CI)", "setting": "[5]; inhibition rate (fa) 0.5, tube length, 10 ng/ml EGF and 20 ng/ml VEGF", "value": 0.4}]}
{"smiles": "Cc1ccc(NS(=O)(=O)c2cccc(C#N)c2)c2[nH]cc(C#N)c12", "note": "[E7820]", "values": [{"measurement": "T/C %", "setting": "[2]", "value": 60, "unit": "%"}, {"measurement": "T/C %", "setting": "[3]", "value": 83, "unit": "%"}, {"measurement": "Tumor growth / antitumor effect (FIG. 1)", "setting": "[4]", "value": "tumor growth was inhibited"}]}
{"smiles": "COc1cc2c(Nc3ccc(Br)cc3F)ncnc2cc1OCCn1ccnn1", "note": "[ZD4190]", "values": [{"measurement": "Combination effect", "setting": "[1]", "value": "Synergistic"}, {"measurement": "Combination index (CI)", "setting": "[1]", "value": 0.3}]}
{"smiles": "CCN(CC)CCCCNc1ncc2cc(-c3cc(OC)cc(OC)c3)c(NC(=O)NC(C)(C)C)nc2n1", "note": "[PD173074]", "values": [{"measurement": "Combination effect", "setting": "[6]", "value": "Synergistic"}, {"measurement": "Combination index (CI)", "setting": "[6]", "value": 0.4}]}
{"smiles": "COc1cc(OC)cc(-c2cc3cnc(N)nc3nc2NC(=O)NC(C)(C)C)c1", "note": "[PD166866]", "values": [{"measurement": "Combination effect", "setting": "[6]", "value": "Synergistic"}, {"measurement": "Combination index (CI)", "setting": "[6]", "value": 0.5}, {"measurement": "Combination effect", "setting": "[7]", "value": "Synergistic"}]}
